# Experimental data published in patent US11478460B2, “Diaryl substituted 6,5-fused ring compounds as C5aR inhibitors” (CHEMOCENTRYX, INC., priority 2017, dated 2022).
# pIC50: −log10 of the molar value.
# Target: C5aR (Homo sapiens (Human), UniProt P21730)
# Assay: Chemotaxis assay using U937 cells (C5aR mediated migration)
# Assay type: cell-based
# Settings: read-out: Mig IC50
# Method in brief: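 U937 monocytic cells, pretreated overnight with 0.5 mM cyclic AMP, placed at 100,000 cells in the upper well above 5 μm polycarbonate filters. Lower well held 0.03 nM C5a plus compound in HBSS/1% FBS; after 1.5 h at 37° C migrated cells counted directly or by CyQuant, giving IC50.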
# C5aR, sequence (P21730 whole entry): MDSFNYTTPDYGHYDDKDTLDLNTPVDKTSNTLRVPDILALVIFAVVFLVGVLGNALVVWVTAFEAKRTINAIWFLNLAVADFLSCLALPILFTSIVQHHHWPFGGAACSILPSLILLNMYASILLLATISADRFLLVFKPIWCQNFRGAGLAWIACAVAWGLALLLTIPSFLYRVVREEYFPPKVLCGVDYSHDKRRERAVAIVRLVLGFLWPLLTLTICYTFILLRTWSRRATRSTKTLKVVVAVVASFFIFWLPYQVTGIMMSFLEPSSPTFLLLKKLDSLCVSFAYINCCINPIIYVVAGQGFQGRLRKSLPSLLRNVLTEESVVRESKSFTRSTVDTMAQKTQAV
row,Compound,pIC50
1,COc1cccc(C)c1-n1nc2c(c1-c1ccc(NC(N)=O)cc1)CN(c1ccccc1C(C)C)CC2 [Example 1.482],7.30 to 8.30
2,COc1cccc(C)c1-n1nc2c(c1-c1ccc(NC(C)=O)cc1)CN(c1ccccc1C(C)C)CC2 [Example 1.483],< 6.30
3,COc1cccc(C)c1-n1nc2c(c1-c1ccc(NC(N)=O)cc1)CN(c1ccccc1C)CC2 [Example 1.484],6.30 to 7.30
4,COc1cccc(C)c1-n1nc2c(c1-c1ccc(NC(C)C)cc1)CN(c1ccccc1C(C)C)CC2 [Example 1.485],6.30 to 7.30
5,COc1cccc(C)c1-n1nc2c(c1-c1ccc(N)cc1)CN(c1ccccc1C(C)C)CC2 [Example 1.486],6.30 to 7.30
6,COc1cccc(C)c1-n1nc2c(c1-c1ccc(N(C)C)cc1)CN(c1ccccc1C)CC2 [Example 1.487],< 6.30
7,COc1cccc(C)c1-n1nc2c(c1-c1ccc(NC(=O)NC(C)(C)C)cc1)CN(c1ccccc1C)CC2 [Example 1.488],< 6.30
8,COc1cccc(C)c1-n1nc2c(c1-c1ccc(NC(C)C)cc1)CN(c1ccccc1C)CC2 [Example 1.489],< 6.30
9,COc1cccc(C)c1-n1nc2c(c1-c1ccc(NC3CCCC3)cc1)CN(c1ccccc1C)CC2 [Example 1.490],< 6.30
10,COc1cccc(C)c1-n1nc2c(c1-c1ccc(N)cc1)CN(c1ccccc1C)CC2 [Example 1.491],6.30 to 7.30
